The target of assay [1] is T1, TFIIIA (Xenopus laevis, UniProt P03001). The assay is classed as binding. Also on record: Immature ovarian tissue was dissected from 4-5 cm female X. laevis frogs; from tissue; host or cells: immature ovarian tissue (oocytes) of Xenopus laevis; 7S particles, 5S RNA removed with RNase A. Conditions: for concentration giving complete inhibition of TFIIIA binding: complete loss of DNase I protection and hypersensitivity; for TFIIIA zinc finger affected by xenobiotic: general statement; for concentration at which TFIIIA binding to the 5S RNA gene is inhibited: loss of DNase I protection, nucleotides +43 to +96, TFIIIA preincubated with metal; for reversibility of inhibition of TFIIIA binding: not overcome by added zinc ions; for inhibition of TFIIIA-5S RNA gene interaction: 10 μM, data not shown. Here is the method: Inhibition of TFIIIA binding to the 5S ribosomal RNA gene was assayed by the DNase I protection method. In this assay, TFIIIA isolated from frogs, or as a recombinant protein, was incubated for a short period of time with a radioactively labeled double-stranded DNA fragment containing the 5S ribosomal RNA gene sequence (120 base-pairs in length). In TFIIIA's role in regulating ribosome synthesis, the protein birds specifically and tightly to this 5S gene sequence. When this occurs, the bound protein protects a large region of the 5S RNA gene from DNase I digestion. DNase I normally degrades the 5S gene and in the process generates a series of differently sized DNA fragments which can be resolved by electrophoresis. TFIIIA binding protects a DNA region comprising approximately 53 base pairs from DNase I degradation.
Cadmium and aluminum inhibition of TFIIIA binding was ascertained by observing the loss of this protected region from 5S gene nucleotides (+43 to +96).
The end-labeled fragment was ethanol precipitated, redigested with BamHI and the smaller fragment was purified by PAGE. Specific activity of the fragment was determined by absorbance at 260 nm and Cerenkov counting. To examine the effects of various metals on the TFIIIA-5S RNA gene interaction TFIIIA (10 nM) was incubated with the various metals (chloride salts of all metals were ultrapure grade and purchased from Aldrich; concentrations are indicated in the figure legends) in 20 mM Tris-HCl, pH 7.6, 70 mM NH4Cl, 7 mM MgCl2, 0.4 mM DTT and 0.1% NP-40 for 10 min prior to addition of the DNA fragment containing the end-labeled 5S RNA gene (1 nM). After addition of DNA the reaction (20 μl ) was incubated at room temperature for an additional 15 min. The reactions were then incubated for an additional 1 min in DNase I (2 μg/ml final concentration) and digestion was terminated by addition of 100 μl stop buffer (20 mM Tris-HCl, pH 7.6, 1 mM EDTA, 0.1% SDS, 30 μg/ml sonicated salmon sperm DNA). […] Gel autoradiography was performed overnight at −70° C. with Kodak XAR-5 film and a Dupont Cronex intensifying screen.
Target sequence in this assay (P03001 23-366): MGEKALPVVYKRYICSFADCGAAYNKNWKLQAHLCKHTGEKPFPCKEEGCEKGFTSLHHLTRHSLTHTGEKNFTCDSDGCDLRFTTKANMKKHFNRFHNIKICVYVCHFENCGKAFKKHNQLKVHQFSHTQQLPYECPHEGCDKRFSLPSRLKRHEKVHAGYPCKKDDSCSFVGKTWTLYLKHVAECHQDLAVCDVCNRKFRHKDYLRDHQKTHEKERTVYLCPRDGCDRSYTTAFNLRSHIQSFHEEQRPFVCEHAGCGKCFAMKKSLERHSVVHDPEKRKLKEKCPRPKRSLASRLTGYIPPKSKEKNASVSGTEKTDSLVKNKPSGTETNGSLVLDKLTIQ

In assay [2] the target is T1, TFIIIA. Nature of the assay: TFIIIA-dependent DNA renaturation assay. Details: Immature ovarian tissue was dissected from 4-5 cm female X. laevis frogs; from tissue; host or cells: immature ovarian tissue (oocytes) of Xenopus laevis; 7S particles, 5S RNA removed with RNase A. The assay is classed as biochemical.
Target sequence in this assay (P03001 23-366): as above
Procedure: DNA migration in the Tris-phosphate agarose gel electrophoresis system used in the DNA renaturation assay is sensitive to some types of DNA structural changes. This assay is useful in this study because it can detect structural changes in the nanomolar DNA concentration range.
DNA renaturation (hybridization of complementary single-stranded DNA) was assayed by binding 20 nM Xenopus TFIIIA to 2 nM heat-denatured ^32P labeled 5S gene DNA for 15 min. Reactions are terminated by detergent and electrophoresed on an agarose gel which resolves the slower migrating single-stranded DNA (s.s.) from the faster migrating double-stranded DNA (d.s.) DNA bands are visualized by autoradiography. […] DNA migration in the absence and presence of cadmium.
TFIIIA isolation, ^32P-end-labeling of the 5S RNA gene, denaturation and renaturation reactions, Tris-phosphate agarose gel electrophoresis and autoradiography were performed as described above in the methodology section herein. […]
Assay [3] relates to estrogen receptor (ER). Conditions: cited from earlier work.
The subject of assay [4] is estrogen receptor (ER). Conditions: hormone-bound estrogen receptor; cited from earlier work.
Assay [5] has as its target T1, TFIIIA. Conditions: excitation 360 nanometers. Here is the method: Zinc is then removed from TFIIIA (- ZINC sample) by incubation with the zinc chelator, ethylenediamine tetraacetic acid (EDTA). Relative emission fluorescent intensity spectra of the TFIIIA-bound AEDANS probe are recorded using an excitation wavelength of 360 nanometers.
Target sequence in this assay (P03001 23-366 limits assumed): as the sequence (P03001 23-366) above

Where two headings read alike, the source gives them in different places.

Consider `[Cl][Al]([Cl])[Cl]` [Al^3+, AlCl3], for which, at TFIIIA [1] (Al3+ versus Cd2+), the “inhibitory concentration relative to that for Cd2+” value is on record as “about 50 fold”. Also, the “concentration giving slight inhibition of TFIIIA binding” value at TFIIIA [1] (FIG. lane 3) amounted to 1 µM. At TFIIIA [1], the “concentration giving complete inhibition of TFIIIA binding” value fell in the range of 5 to 7 µM, the “TFIIIA zinc finger affected by xenobiotic” value (“TFIIIA zinc finger affected” for short) was “affected”, the “concentration at which TFIIIA binding to the 5S RNA gene is inhibited” value (“concentration … to the 5S RNA gene is inhibited” below) is 3 µM and the “reversibility of inhibition of TFIIIA binding” value is “irreversible”. Besides, the “inhibition of TFIIIA-dependent DNA renaturation” value at TFIIIA [2] (TFIIIA preincubated with 50 μM AlCl3 (panel B)) was “Inhibition of TFIIIA-dependent renaturation”.

For the compound `[AsH3]` [Arsenic, NaH2AsO4], the “inhibition of TFIIIA zinc finger binding to DNA” value at TFIIIA [1] (preincubated with 0.1, 0.5 or 1.0 mM NaH2AsO4) is on record as “does not inhibit”.

As for `[Cl][Cd][Cl]` [Cd^2+, CdCl2], the “concentration inhibiting initial binding of hormone to receptor” value in the assay on estrogen receptor (ER) [3] was 0.1 mM. The “concentration inhibiting DNA binding by activated receptors” value in the assay with estrogen receptor (ER) [4] is recorded as 1 mM. For the same compound, the “in vitro inhibitory concentration relative to serum concentration in moderate to heavy smokers” value at TFIIIA [1] (0.1 μM Cd2+ for TFIIIA) is reported as “approximately 5 fold”. Besides, on TFIIIA [1] (at 0.1 μM Cd2+), the “inhibitory molecules of metal ion per TFIIIA molecule” value is < 10 molecules per TFIIIA molecule. For the same compound, on TFIIIA [1], the “concentration giving complete inhibition of TFIIIA binding” value stood at 0.25 µM, the “TFIIIA zinc finger affected” value is on record as “affected”, the “concentration … to the 5S RNA gene is inhibited” value stood at 0.1 µM and the “reversibility of inhibition of TFIIIA binding” value is “irreversible”. For the same compound, on TFIIIA [2] (TFIIIA 10, 20 or 30 nM preincubated with 1 μM CdCl2), the “inhibition of TFIIIA-dependent DNA renaturation” value is reported as “inhibition of DNA renaturation”.

Consider `[Cl-].[Cs+]` [Cs^2+], for which, at TFIIIA [1], the “inhibition of TFIIIA-5S RNA gene interaction” value is listed as “non-inhibitory” and the “TFIIIA zinc finger affected” value is reported as “not”.

As to `O=C(O)CN(CCN(CC(=O)O)CC(=O)O)CC(=O)O` [EDTA, ethylenediamine tetraacetic acid], the “emission wavelength after zinc removal” value at TFIIIA [5] (blue shift from 485 nanometers) came to 478 nanometers. Besides, on TFIIIA [5] (zinc removed from TFIIIA by EDTA), the “increase of emission fluorescence intensity” value came to 25%.

For the compound `[Cl-].[Cl-].[Mg+2]` [Mg^2+], the “inhibition of TFIIIA-5S RNA gene interaction” value at TFIIIA [1] was “non-inhibitory”.

As to `[Cl][Mn][Cl]` [Mn^2+], at TFIIIA [1], the “inhibition of TFIIIA-5S RNA gene interaction” value is recorded as “non-inhibitory” and the “TFIIIA zinc finger affected” value is “not”.

For `O=[Se]([O-])[O-].[Na+].[Na+]` [Na2SeO3], on TFIIIA [1], the “TFIIIA zinc finger affected” value is reported as “affected” and the “concentration … to the 5S RNA gene is inhibited” value was no less than 25 µM.

`[Cl][Pb][Cl]` [PbCl2]: on TFIIIA [1], the “TFIIIA zinc finger affected” value was “affected” and the “concentration … to the 5S RNA gene is inhibited” value is no less than 10 µM.

On to HgCl2 [Mercury], for which, at TFIIIA [1], the “TFIIIA zinc finger affected” value is on record as “not”. Besides, on TFIIIA [1] (preincubated in 5, 10, 15, 20 μM HgCl2), the “inhibition of TFIIIA zinc finger binding to DNA” value is “does not inhibit”.
